{"source": "paper PMC4122235", "about": "(Biochimica et biophysica acta, 2014)", "key": {"[1]": {"target": "CacKam (Catenulispora acidiphila, UniProt C7Q5P8)", "experiment": "biochemical", "format": "binding"}, "[2]": {"target": "CarKam", "experiment": "isothermal titration calorimetry, single-site fit", "format": "binding, Candidatus Arthromitus sp. SFB-mouse-NYU", "conditions": "25 °C, 20 mM Tris pH 7.5, 10 mM magnesium acetate, 250 mM NH4Cl, 10 % glycerol, 6 mM β-mercaptoethanol, no 30S subunit"}, "[3]": {"target": "TcuKam (Thermomonospora curvata, UniProt D1A6K4)", "experiment": "biochemical", "format": "binding"}, "[4]": {"target": "(UniProt K2DC64)", "experiment": "biochemical"}}, "note": "pKd: −log10 of the molar value. Where two headings read alike, the source gives them in different places.", "data": [{"smiles": "Nc1ncnc2c1ncn2[C@@H]1O[C@H](CSCC[C@H](N)C(=O)O)[C@@H](O)[C@H]1O", "note": "[SAH]", "values": [{"measurement": "pKd", "setting": "[1]", "value": 5.57}, {"measurement": "Kd", "setting": "[2]; read-out: Kd (μM) / SAH", "value": 4.1, "unit": "µM"}, {"measurement": "pKd", "setting": "[3]", "value": 5.72}]}, {"smiles": "C[S+](CC[C@H](N)C(=O)O)C[C@H]1O[C@@H](n2cnc3c(N)ncnc32)[C@H](O)[C@@H]1O", "note": "(stereo partly shown) [SAM]", "values": [{"measurement": "pKd", "setting": "[1]", "value": 4.36}, {"measurement": "Kd", "setting": "[2]; read-out: Kd (μM) / SAM", "value": 24, "unit": "µM"}, {"measurement": "pKd", "setting": "[3]", "value": 4.89}, {"measurement": "pKd", "setting": "[4]", "value": 4.12}]}]}
